# Publication PMC3707936 (Molecular cancer therapeutics, 2013)
# Read-outs that look alike come from different tables or passages of the source.
# Legend:
# GIST-T1 cells [1] = assay: Quantitative drug screen, CellTiter-Blue cell viability, GIST-T1; type: cell-based; conditions: read-out: IC50 GIST-T1; primary screen, 72 h, 10 μM to […] twofold dilutions; * = IC50 < 0.07 μM and drug showed no dose response
# GIST-T1 cells [2] = assay: Hit validation cell proliferation, 12-point dose-response, GIST-T1; type: cell-based
# GIST 882 cells [3] = assay: Hit validation cell proliferation, 12-point dose-response, GIST 882; type: cell-based; conditions: GIST 882, 1 μM, 72 hour
# GIST T1-10R cells [4] = assay: Hit validation cell proliferation, 12-point dose-response, GIST T1-10R; type: cell-based
# [5] = system: reactive oxygen species (ROS); assay: Intracellular ROS activity measurement; type: cell-based
# phospho-c-KIT (Tyr719) = assay: Western blot, phospho-c-KIT in GIST cells; type: cell-based
# phospho-AKT (Ser473) = assay: Western blot, phospho-AKT; type: cell-based; conditions: GIST 882 cells, all auranofin treatments, 6 h; site not specified
# [6] = system: phospho-ERK1/2 (Thr202/Tyr204); assay: Western blot, phospho-ERK1/2 in GIST cells; type: cell-based; conditions: for pERK1/2 level, fold change: GIST T1-10R cells, 6 hours
# GIST-T1 cells [7] = assay: Early apoptosis assay; type: cell-based; conditions: GIST-T1, 1 μM, 24 h, Annexin V
# GIST T1-10R cells [8] = assay: Early apoptosis assay; type: cell-based; conditions: 1 μM, 24 h, Annexin V
# GIST 882 cells [9] = assay: Early apoptosis assay; type: cell-based; conditions: GIST 882, 1 μM, 24 h, Annexin V
# Caspase 3/7 = Caspase 3/7 activity assay in GIST cells; type: cell-based; conditions: 0.1 and 1 μM, 72 hours
# [10] = system: thioredoxin reductase (TrxR); conditions: for TrxR activity: 6 h
# [11] = GIST 882 cells, all auranofin treatments, 6 h
smiles,measurement,setting,value
CC(=O)OC[C@H]1O[C@@H]([S-])[C@H](OC(C)=O)[C@@H](OC(C)=O)[C@@H]1OC(C)=O.CCP(CC)CC.[Au+] [Auranofin],IC50,GIST-T1 cells [1],230 nM
same,cell viability,"GIST-T1 cells [2]; GIST-T1, 1 μM, 72 hour",decrease in cell viability
same,"cell proliferation induced by low-dose treatment, fold","GIST-T1 cells [2]; GIST-T1, low-dose, 72 hour",1.1–1.2 fold
same,IC50,"GIST-T1 cells [2]; read-out: IC50 GIST-T1, hit validation, 12-point 20 μM to 1 nM, triplicate, 72 h",250 ± 150 nM
same,cell viability,GIST 882 cells [3],decrease in cell viability
same,cell viability,"GIST T1-10R cells [4]; GIST T1-10R, 1 μM, 72 hour",decrease in cell viability
same,"cell proliferation induced by low-dose treatment, fold","GIST T1-10R cells [4]; GIST T1-10R, low-dose, 72 hour",1.1–1.2 fold
same,IC50,"GIST T1-10R cells [4]; read-out: IC50 GIST T1-10R, hit validation, 12-point 20 μM to 1 nM, triplicate, 72 h",20 ± 10 nM
same,"ROS production, fold change","[5]; GIST 882 cells, 1 and 10 μM, 6 h",1.5 fold
same,"ROS, fold change vs vehicle-treated cells","[5]; GIST 882 cells, across all auranofin treatments",~ 1.5 fold
same,"ROS formation, fold change","[5]; GIST T1-10R cells, 1 and 10 μM, 6 h",2.6 fold
same,ROS,"[5]; all three GIST cell lines, 0.01 and 0.1 μM, 6 h",remained relatively stable
same,ROS production with longer treatment,"[5]; all three GIST cell lines, longer treatment",induces higher production of ROS
same,phosphorylated level of cKIT,phospho-c-KIT (Tyr719); [11],does not noticeably alter
same,"p-cKT level, fold change","phospho-c-KIT (Tyr719); GIST-T1 cells, 1 or 10 μM, 6 hours",~ 0.5 fold
same,phosphorylated level of AKT,phospho-AKT (Ser473),does not noticeably alter
same,phosphorylated level of ERK,[6]; [11],does not noticeably alter
same,"pERK1/2 level, fold change",[6]; 0.01 μM,~ 3.0 fold
same,"pERK1/2 level, fold change",[6]; 0.1 μM,~ 3.6 fold
same,"pERK1/2 level, fold change",[6]; 1 μM,~ 2.7 fold
same,"pERK1/2 level, fold change",[6]; 010 μM,~ 2.4 fold
same,"fraction of early apoptotic cells, fold increase",GIST-T1 cells [7],~ 4 fold
same,"fraction of early apoptotic cells, fold increase",GIST T1-10R cells [8],~ 2.8 fold
same,"fraction of early apoptotic cells, fold increase",GIST 882 cells [9],~ 2.3 fold
same,Caspase 3/7 activity,Caspase 3/7,able to increase
same,TrxR activity,"[10]; GIST T1-10R cells, 0.01 and 0.1 μM",significant decrease
same,TrxR activity,"[10]; all three GIST cell lines, 1.0 and 10 μM",dramatically reduces
same,TrxR enzymatic activity,[10]; exposure up to 24 hours at 1 μM,inhibited
